Results as given in article PMC5716993, “The interdomain flexible linker of the polypeptide GalNAc transferases dictates their long-range glycosylation preferences” (Nature Communications, 2017).
Entries after “also recorded” stand apart in the source; their conditions may differ.

Molecular target: T1, GalNAc-T4 (Homo sapiens, UniProt Q8N4A0)
T1 construct: amino acid residues 36–578 of the human GalNAc-T4; histidine tag (C); made in house; host or cells: Pichia pastoris SMD1168 (pPICZαA, secreted)
Assay: STD-NMR binding / epitope mapping
Conditions: for STD-NMR signals of the GalNAc sugar protons: GalNAc moiety, UDP, pH 7.4; for STD-NMR signals of the GalNAc sugar protons / STD-NMR signals (peptide recognition): ~880 μM ligand, 13.5 μM GalNAc-T4, 298 K; for STD-NMR signals of the GalNAc sugar protons / STD-NMR signals (peptide recognition) / STD-NMR-derived epitope mapping of GalNAc moiety: in words; for STD-NMR signals (peptide recognition): in presence of UDP and MnCl2 (75 μM each), pH 7.4 uncorrected, TRIS-d11 D2O; for STD-NMR-derived epitope mapping of GalNAc moiety: normalized to the highest STD response
Procedure: All NMR experiments were recorded on a Bruker Avance 600 MHz spectrometer equipped with a triple channel cryoprobe head. The^1H NMR resonances of the peptides 1–3 were completely assigned through standard 2D-TOCSY (30 and 80 ms mixing time) and 2D-NOESY experiments (400 ms mixing time). Solution conditions used for the NMR characterization studies were 1–3 mM (glyco)peptide, 25 mM perdeuterated tris-d11 in 90:10 H2O/D2O, 7.5 mM NaCl, and 1 mM DTT, uncorrected pH 7.4. The assignments were accomplished either at 278 or 298 K. The resonance of 2,2,3,3-tetradeutero-3-trimethylsilylpropionic acid (TSP) was used as a chemical shift reference in the^1H NMR experiments (δ TSP = 0 ppm). Peak lists for the 2D-TOCSY and 2D-NOESY spectra were generated by interactive peak picking using the computer aided resonance assignment (CARA) software.
Samples for STD experiments were prepared in perdeuterated 25 mM TRIS-d11 in deuterated water, 7.5 mM NaCl, and 1 mM DTT, uncorrected pH 7.4. STD-NMR experiments were performed at 298 K in the presence of 75 μM UDP, 75 μM MnCl2 with ~880 μM peptide (or GalNAc-O-Me) and 13.5 μM GalNAc-T4 giving a molar ratio of 65:1 peptide:GalNAc-T4.
The STD-NMR spectra were acquired with 1920 transients in a matrix with 64 k data points in t2 in a spectral window of 12335.53 Hz centered at 2819.65 Hz. An excitation sculpting module with gradients was employed to suppress the water proton signals. Selective saturation of the protein resonances (on resonance spectrum) was performed by irradiating at −1 ppm using a series of Eburp2.1000-shaped 90° pulses (50 ms, 1 ms delay between pulses) for a total saturation time of 2.0 s. For the reference spectrum (off resonance), the samples were irradiated at 100 ppm. Proper control experiments were performed with the ligands in the presence and absence of the protein in order to optimize the frequency for protein saturation (−1 ppm) and to ensure that the ligand signals were not affected. […] This nonspecific saturation was taken into account, by subtraction, when quantifying the STD-NMR data in the presence of the transferase. As well, a blank STD experiment with only the protein was also recorded. The substraction of this protein STD spectrum allowed eliminating the signal background of the protein. In all cases, to accomplish the STD-NMR-derived epitope mapping of each ligand, the STD-NMR total intensities were normalized with respect to the highest STD-NMR response. For Fig. 2b and Supplementary Fig. 1, the STD response of each amino acid corresponds to the average of STD percentages of all amino acid proton resonances that were measured with sufficient accuracy. The signal of the anomeric proton of as well as, the Hα protons of the Ala amino acids of glycopeptides could not be analyzed in the STD-NMR spectra due to their close proximity to the HDO resonance. Proton resonances, from Gly and Pro, appear in the same chemical shift region of the spectrum and were not discriminated.

T1 sequence (Q8N4A0 36-578): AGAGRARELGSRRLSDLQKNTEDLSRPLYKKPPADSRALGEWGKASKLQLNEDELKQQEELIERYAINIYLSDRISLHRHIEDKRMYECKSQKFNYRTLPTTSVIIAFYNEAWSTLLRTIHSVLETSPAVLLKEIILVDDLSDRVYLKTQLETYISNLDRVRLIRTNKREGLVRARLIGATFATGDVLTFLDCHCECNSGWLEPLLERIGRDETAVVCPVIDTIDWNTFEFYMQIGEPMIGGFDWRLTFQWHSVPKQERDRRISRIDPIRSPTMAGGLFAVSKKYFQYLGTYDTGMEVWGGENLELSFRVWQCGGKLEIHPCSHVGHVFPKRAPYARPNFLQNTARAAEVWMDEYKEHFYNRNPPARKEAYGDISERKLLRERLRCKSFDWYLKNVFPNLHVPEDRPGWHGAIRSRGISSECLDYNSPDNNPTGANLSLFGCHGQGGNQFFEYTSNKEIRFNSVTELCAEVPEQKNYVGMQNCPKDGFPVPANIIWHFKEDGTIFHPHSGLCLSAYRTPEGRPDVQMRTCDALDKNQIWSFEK

| Substance | STD-NMR signals of the GalNAc sugar protons (MnCl2) | STD response, GalNAc H3 (H3 of GalNAc moiety, normalized to highest STD response, 298 K, pH 7.4, UDP, MnCl2) [%] | STD response, GalNAc H4 (H4 of GalNAc moiety, normalized to highest STD response, 298 K, pH 7.4, UDP, MnCl2) [%] | STD-NMR signals (peptide recognition) | STD-NMR-derived epitope mapping of GalNAc moiety (298 K, pH 7.4, UDP, MnCl2) |
| --- | --- | --- | --- | --- | --- |
| GAT*GAGAGAGTTPGPG [Peptide 3, monoglycopeptide GAT*…, T* denotes the Thr-O-GalNAc moiety] | unambiguous and more intense STD-NMR signals; also recorded: GalNAc protons receive much more saturation than the amino acid residues | 72 | 92 | relatively weak STD-NMR signals were observed for the Ala and Thr methyl protons; also recorded: no significant STD with the acceptor peptide residues | H2, H4, and the N-acetyl group of the GalNAc moiety have the highest STD-NMR response closely followed by the H3 proton |
| AGAGTTPGPGAGAT*GA [Peptide 2, monoglycopeptide …*GA, T* denotes the Thr-O-GalNAc moiety] | unambiguous and more intense STD-NMR signals; also recorded: GalNAc protons receive much more saturation than the amino acid residues | – | – | relatively weak STD-NMR signals were observed for the Ala and Thr methyl protons | the highest STD response corresponded to the H2 proton of the GalNAc moiety followed by a modest STD of protons H4, H3, and N-acetyl group |
